B1: His-DUSP18 (enzyme, human, UniProt Q8NEJ0 1-188, looked up)
chain: MTAPSCAFPVQFRQPSVSGLSQITKSLYISNGVAANNKLMLSSNQITMVINVSVEVVNTLYEDIQYMQVPVADSPNSRLCDFFDPIADHIHSVEMKQGRTLLHCAAGVSRSAALCLAYLMKYHAMSLLDAHTWTKSCRPIIRPNSGFWEQLIHYEFQLFGKNTVHMVSSPVGMIPDIYEKEVRLMIPL
notes: full-length WT human DUSP18, in pMCSG7; In the SPR it is called 'DUSP18 protein'; removal of the tag is not mentioned; also called DUSP18 protein; WT-DUSP18; source: E. coli, purified; not shown: His, N-terminal, kept

The test system of one assay is GPR54 / Src interaction. Kind of assay: Co-IP: interaction of GPR54 with Src in transfected 293T cells. Conditions: inhibitor 1 h (U73122 10 µM, Staurosporine 0.25 µM, LY3214996 10 µM, KN-93 10 µM, Saracatinib 10 µM), then 10 nM Kp-10 20 min. It counts as cell-based, human. On the procedure:
(§1) Data represent means ± SEM. P values were determined by one-way ANOVA analysis (b, c, e, g, i, k). Representative results were obtained from at least three independent experiments. Source data are provided as a Source Data file.
(§2) Whole-cell proteins were extracted using 1x RIPA buffer (25 mM Tris, pH7.5, 150 mM NaCl, 0.5% Sodium deoxycholate, 1% Triton-X-100) supplemented with protease inhibitors (Complete Mini, Roche) and phosphatase inhibitors (phosphatase inhibitor cocktail set I and II, Calbiochem). Immunoprecipitation and immunoblotting with indicated antibodies were performed as described in Supplementary Table 1. Image Jsoftware (V1.52) was used for quantification analysis. Uncropped and unprocessed blots are presented in the Supplementary Information file.
Error bars are ± SEM. […] Source data are provided as a Source Data file.

In the next assay the test system is Dusp18 expression. Briefly: qPCR of Dusp18 mRNA in RAW264.7 cells. It counts as cell-based, mouse. As to conditions: U73122 10 µM, Staurosporine 0.25 µM, LY3214996 20 µM, SB203580 10 µM for 1 h, then Kp-10 30 min. From the text:
Anti-Flag IP of lysates derived from 293 T cells transfected with GPR54-flag and Src-HA constructs (d) and quantification results (e). Anti-Flag IP of lysates derived from 293 T cells transfected with GPR54-flag and DUSP18-HA constructs (f) and quantification results (g). Anti-Flag IP of lysates derived from 293 T cells transfected with Src-HA, and DUSP18-flag constructs (h) and quantification results (i). j, k IB analysis of lysates derived from WT BMMs and Gq/11 KO BMMs with or without Kp-10 treatment for 1 h (j) and quantification of results (k). l Working model of Kp-10 /Gpr54 mediated Src dephosphorylation. […] However, both active Src and DUSP18 were recruited by GPR54 through the PR motif in GPR54 CT along with the increase of Kp-10 dose (1, 10 nM). […] Data represent means ± SEM. P values were determined by one-way ANOVA analysis (b, c, e, g, i, k). Representative results were obtained from at least three independent experiments. Source data are provided as a Source Data file.
Total RNA was extracted from RAW264.7 cells using TRIzol® (TaKaRa) and then reverse transcribed into cDNA using the PrimeScript RT-PCR Kit (TaKaRa, RR014) according to the manufacturer’s instructions. The cDNA products were used for quantitative PCR analysis by SYBR Mix (TaKaRa, RR064). Sequences of the indicated primers are described in Supplementary Table 2.
A general note: Real-time PCR tracks product formation cycle by cycle.

In a further assay the test system is Src / DUSP18 interaction. Kind of assay: Co-IP/IB: interaction of Src with DUSP18 in transfected 293T cells. It counts as cell-based. On the procedure: Anti-Flag IP derived from 293 T cells transfected with HA-Src and either DUSP18-Flag or DUSP18 (C104S)-Flag constructs with or without Kp-10 treatment for 20 min were lysed and subjected to anti-FLAG IP (b). Phosphatase reaction products using His-DUSP18 and His-DUSP18 (C104S) proteins purified from E. coli and SRC proteins purified from Sf9 insect cells (c) and quantification of protein levels (d). Anti-Src IP derived from RAW264.7 cells treated with or without Kp-10 treatment for 20 min were lysed and subjected to anti-Src IP (e) and quantification of protein levels (f). g, h Src and Dusp18 co-localization was analyzed by IF staining in primary pre-osteoclasts treated with 10 nM Kp-10 treatment for 20 min. Representative images of endogenous Dusp18 and Src were shown by TIRF microscopy (g), and MOC was used to quantify the degree of colocalization in cells from multiple images taken randomly (h). Scale bar, 50 µm. i–m IB and quantification of protein levels analysis. Anti-Flag IP derived from 293 T cells transfected with HA-Src, GPR54-myc, and either DUSP18-Flag or DUSP18 (C104S)-Flag constructs after Kp-10 treatment for 20 min (i) and quantification of protein levels (j, k). […] Scale bars, 125 µm (n), and pits depth were quantified by confocal microscopy (o). […] P values were determined by one-way ANOVA analysis (d, f, j, k, m, o) or by two-tailed Student’s t-test (h). […]

Assay [1] deals with DUSP18 / GPR54 interaction. Briefly: Co-IP: interaction of DUSP18 with GPR54 in transfected 293T cells. It counts as cell-based, human. Conditions: 293T; inhibitor 1 h (U73122 10 µM, Staurosporine 0.25 µM, LY3214996 10 µM, KN-93 10 µM, Saracatinib 10 µM), then 10 nM Kp-10 20 min. On the procedure: as §1, §2
Supplementary Fig. 6 a, b IB and quantification of protein levels analysis. […] Error bars are ± SEM. P-values were determined by two-tailed Student’s t-test (b, e) or by one-way ANOVA analysis (h, j). *P <0.05, **P <0.01, ***P <0.001, ****P <0.0001. Representative results were observed from at least three independent experiments. Source data are provided as a Source Data file.

Another assay concerns SH3 domain of Src. Kind of assay: SH3 domain protein-binding array. Conditions: TranSignal SH3 Domain Array, GST-GPR54 CT overnight at 4 °C. The protocol: SH3 domain protein-binding array was performed using TranSignal™ SH3 Domain Array kit (Cat. #MA3010). The kit was purchased from Panomics, and probed using GST-GPR54 CT. Purified different SH3 domain-containing proteins including the Src kinase family were spotted in duplicate on the membrane filter and tested for their binding to GST-GPR54 CT. Briefly, membrane filters were incubated with […] GST-GPR54 CT protein overnight at 4 °C. After washing the membrane, the GST antibody was incubated overnight at 4 °C. Protein binding was visualized by incubation with an HRP-conjugated antibody. Spots with stronger intensities indicated a higher binding affinity of GST-GPR54 CT with the SH3 domain-containing protein (s). SH3 domain proteins in the array were summarized in Supplementary Table 3.

Assay [2] deals with T1, His-SRC protein, Src (G85-L536) (human, UniProt P12931 85-536).
T1 construct: human Src, G85-L536, in pFastBac HT B; In the SPR it is called 'SRC protein'; removal of the tag is not mentioned; source: Sf9 (Bac-to-Bac baculovirus), purified; not shown: His6, N-terminal, kept
Kind of assay: SPR; Biacore T200, DUSP18 and Src; which of the two was immobilised is not told; 25 °C, 30 µl/minute, PBS with 0.05% Tween-20; kinetics analysis, 1:1 model. As to conditions: both partners purified. In general terms: In SPR one partner is held on a chip, and binding of the other changes the refractive index at the surface.

The next assay has as its system Src (Y416). Briefly: in vitro phosphatase activity assay with Src. It counts as biochemical, human. Conditions: purified proteins; 30 min at 30 °C; Western blot. On the procedure:
The C terminus of human GPR54 (H329- L398) and mouse Gpr54 (R331- L396) cDNAs were subcloned into a pGEX-4T2 vector. For purification of full-length WT human DUSP18 and DUSP18 (C104S) proteins, DUSP18 was cloned into pMCSG7 vector. For purification of Src (G85-L536) protein, cDNAs of human Src were subcloned into pFastBac HT B vector with an N-terminal 6xHis tag and expressed in Sf9 cells (Expression Systems) using the Bac-to-Bac Baculovirus Expression System (Invitrogen) for 48 h. For purification of the Src (G85-V247)-GPR54 (333–356 with C338S, C340S mutation) recombinant fusion protein, the C-terminus of GPR54 (333–356 with C338S and C340S mutation) was linked to the C terminus of Src SH3-SH2 domain (G85-V247), which was subcloned into the pMCSG7 vector.
For the total phosphatase activity assay, the Co-IP experiment was carried out after Kp-10 treatment of RAW264.7 cells for 20 min, followed by lysis and incubation with the Gpr54 antibody. The assay was performed according to the phosphatase assay kit (Sigma-Aldrich,17-313). For the DUSP18 phosphatase activity assay, His-DUSP18 and His-DUSP18 (C104S) were purified from E Coli, and His-Src was purified from Sf9 insect cells. His-DUSP18 and His-DUSP18 (C104S) were incubated with His-Src in 1x phosphatase buffer (20 mM HEPES, 20 mM MgCl2, 0.03% β-mercaptoethanol)[51] for 30 min at 30 °C with gentle shaking. […]
(In general: In western blotting, separated proteins are transferred to a membrane and probed.)

The target of the assay “His-DUSP18” is B1. Kind of assay: SPR; Biacore T200, DUSP18 protein immobilised on CM5 by amine coupling (25 ug/mL, pH 7.4, PBS); 25 °C, 30 µl/minute, PBS with 0.05% Tween-20; kinetics analysis, 1:1 model. Conditions: both partners purified.

For `Cn1nccc1Nc1nccc(-c2cc3c(s2)C(C)(C)N(CCN2CCOCC2)C3=O)n1` [LY3214996], in the assay on GPR54 / Src interaction, the “effect on Kp-10 induced interaction of GPR54 with Src” value (“effect … with Src” below) is “not by the inhibitors”. For the same molecule, the “expression of Dusp18 (mRNA)” value in the assay on Dusp18 expression was “inhibited”.
With `CN1CCN(CCOc2cc(OC3CCOCC3)c3c(Nc4c(Cl)ccc5c4OCO5)ncnc3c2)CC1` [Saracatinib], the “effect … with Src” value with GPR54 / Src interaction is reported as “obvioulsly dampened”. Also, the “effect on Kp-10 induced interaction of Src with DUSP18” value in the assay on Src / DUSP18 interaction (293T, inhibitor 1 h (U73122 10 µM, Staurosporine 0.25 µM, LY3214996 10 µM, KN-93 10 µM, Saracatinib 10 µM), then 10 nM Kp-10 20 min) was “obvioulsly dampened”. In assay [1], the “effect on Kp-10 induced interaction of GPR54 with DUSP18” value is listed as “obvioulsly dampened”.
On to `CN[C@@H]1C[C@H]2O[C@@](C)([C@@H]1OC)n1c3ccccc3c3c4c(c5c6ccccc6n2c5c31)C(=O)NC4` [Staurosporine], for which, in the assay on GPR54 / Src interaction, the “effect … with Src” value is given as “not by the inhibitors”. Besides, the “expression of Dusp18 (mRNA)” value with Dusp18 expression was “inhibited”.
Take “GPR54 CT: C terminus of human GPR54 (H329- L398)”: the “interaction with SH3 domains” value in the assay on SH3 domain of Src is “interacted with the SH3 domain of Src most obviously”.
A word on the Kd: it is the constant that tells how readily two partners part at equilibrium. Low readings indicate a tighter complex, high ones a looser complex. In assay [2], B1 came in with a dissociation constant (Kd) of 5.9 nM.

B2: DUSP18 (C104S): enzymatically dead DUSP18 (C104S) mutant (protein)
chain: MTAPSCAFPVQFRQPSVSGLSQITKSLYISNGVAANNKLMLSSNQITMVINVSVEVVNTLYEDIQYMQVPVADSPNSRLCDFFDPIADHIHSVEMKQGRTLLHSAAGVSRSAALCLAYLMKYHAMSLLDAHTWTKSCRPIIRPNSGFWEQLIHYEFQLFGKNTVHMVSSPVGMIPDIYEKEVRLMIPL
modifications: left off: Flag, C-terminal, kept
notes: enzymatically dead DUSP18 (C104S) mutant
In the case of B2, in the assay with Src (Y416), the “dephosphorylation of Src (Y416)” value is reported as “had no activity”. For the same molecule, the “interaction with Src by Co-IP” value in the assay with Src / DUSP18 interaction (anti-Flag IP, 293T cells transfected with HA-Src) is given as “eliminated the interaction with Src”.

B3: mouse Gpr54^336–342 peptide (peptide, UniProt Q91V45 336-342, looked up)
peptide: RVCPCCR
notes: mouse Gpr54 (Kiss1 receptor), residues 336-342, said to correspond to the RxxPxxR motif; also called peptide of Gpr54^336–342 (RxxPxxR motif); source: synthetic peptide
Molecule B3 gave a dissociation constant Kd with His-DUSP18 of 1800 nM.

The values are drawn from paper PMC10861593, “Kisspeptin-10 binding to Gpr54 in osteoclasts prevents bone loss by activating Dusp18-mediated dephosphorylation of Src” (Nature Communications, 2024).
